For one compound, Activity and Kd results are on record in ChEMBL document CHEMBL1146233, “Modification of the ceramide moiety of isoglobotrihexosylceramide on its agonist activity in stimulation of invariant natural killer T cells” (J Med Chem, 2007).

Active and inactive are the calls of the source. The rule behind the calls is not given here.

As usually defined, the Kd is the constant that tells how readily two partners part at equilibrium.

For assay [1], the system named is iNKT. The assay is described as follows: Stimulation of hCD1d-restricted human iNKT cells assessed as IL4 release at 10 ng/mL by ELISA. The class given is functional, cell-based. Background: ELISA stands for enzyme-linked immunosorbent assay.
In assay [2] the test system is iNKT. As to the kind of experiment: Stimulation of hCD1d-restricted human iNKT cells assessed as IFN-gamma release at 10 ng/mL by ELISA. The format is functional, cell-based.
Assay [3] in a line: Binding affinity to T cell receptor. The format is cell-based, Homo sapiens.

On to `CCCCCCCCCCCCCCCCCCCCCCCCCC(=O)N[C@@H](CO[C@H]1O[C@H](CO)[C@H](O)[C@H](O)[C@H]1O)[C@H](O)[C@H](O)CCCCCCCCCCCCCC` [RGI-7000], for which the result in the assay with iNKT [1] and with iNKT [2] was Active. This compound registered a Kd in assay [3] of 350 nM.
